From a melting point compilation (Tetko et al.; mined from patent text by program, amines drawn as free bases though some values may be those of a salt)

Row | SMILES | melting point [°C]
1 | CC(=O)Oc1ccccc1Cn1nnnc1-c1cccc(Cl)c1Cl | 195 to 196
2 | Cc1cccc(-c2n[nH]cc2-c2ccc(F)c(-c3ccc(O)cc3)c2)n1 | 72 to 74
3 | CCOCc1nc2c(N)nc3ccccc3c2n1CCCCC(N)=O | 198 to 200
4 | O=C(O)CN1C(=O)CC1SCc1ccccc1 (stereo unspecified) | 110
5 | O=C1c2ccccc2C(=O)N1CCSc1nccc(NC(=S)NCC(F)(F)F)n1 | 238 to 241
6 | COC(=O)c1[nH]c(-c2ccccc2)c(N=Cc2ccccc2)c1C(=O)OC | 218 to 220
7 | C=CCCC(=O)Nc1ccccc1 | 93 to 94
8 | CC(C)c1[nH]nc2c1C(=O)c1c(NC(=O)NN3CCN(C)CC3)cccc1-2 | 231 to 233
9 | C=CCN(CC=C)c1nc(N(CC=C)CC=C)nc(N2CCN(C(=O)n3ccnc3)CC2)n1 | 94 to 95
10 | CCc1[nH]n(C2CCCC2)c2nc(COS(C)(=O)=O)nc(=O)c1-2 | 138 to 140
11 | O=C1C(Nc2ccccc2)=CC(=O)c2ncccc21 | 182 to 184
12 | Cc1cc(C)cc(C(=O)N(C)[C@H](Cc2ccccc2)C(=O)N[C@@H](Cc2c[nH]c3ccccc23)C(=O)O)c1 | 91 to 94
13 | CCCCNC(=O)NS(=O)(=O)c1cccc2c1S(=O)(=O)N(C)C2 | 162 to 164
14 | CCCCCCCCNC(=O)c1cscc1C(=O)O | 120 to 122
15 | CS(=O)(=O)c1nnc(-c2ccc3occ(-c4ccc(OC(F)(F)F)cc4)c3c2)o1 | 196 to 197
16 | O=c1[nH]c2ccc(S(=O)CCN3CCC(Cc4ccc(F)cc4F)CC3)cc2o1 (stereo unspecified) | 166 to 168
17 | COc1ccc(Nc2nc(NC3CCCCCC3)nc(N(C)C3CCN(C)CC3)n2)cc1Cl | 173 to 176
18 | COc1ccccc1OCCOS(N)(=O)=O | 81.5 to 83
19 | CCOC(=O)c1cn2c(=O)n(CC)c3ccccc3n2c1=O | 235 to 237
20 | CC(=O)NC1CCc2c(C(=O)O)[nH]c(C(=O)O)c2C1 (stereo unspecified) | 233 to 235
21 | O=C1CCC(c2ccccc2)(c2ccccc2)[C@@H]2CN(C(=O)Cc3c(Cl)cccc3Cl)C[C@H]12 (racemic) | 201
22 | COc1cc2c(c(C)c1OC)CC(C)CC2=O (stereo unspecified) | 106 to 108
23 | C=C(CC(=O)c1ccc(Cl)c(Cl)c1)C(=O)O | 156 to 157
24 | Cc1oc(-c2ccccc2)nc1C(N)=O | 154 to 157
25 | CNC(=O)C(C)(C)n1cc(C)c(-c2ccccc2Cl)n1 | 87 to 90.5
26 | CCN(CC)c1ccc(-n2cc(-c3ccc(C4=C(C#N)C(=C(C#N)C#N)OC4(C)C)cc3)nn2)cc1 | 265

Row | SMILES | melting point [°C]
27 | O=C1CCSC(=S)N1c1c(F)c(F)c(F)c(F)c1F | 164
28 | Cc1nn(C)c(F)c1C(=O)Nc1ccccc1C(C)C(O)C(C)C (stereo unspecified) | 118
29 | OCC1CCN(c2ccncc2)CC1 | 183 to 185
30 | Cc1nc2c(N)nc3cc(-c4ccccc4)ccc3c2n1CCCS(C)(=O)=O | 203 to 205
31 | Cc1cc(C)nc([NH+]([O-])C(=O)Cc2cccs2)c1 (stereo unspecified) | 154 to 155
32 | OC(c1ccncc1)c1c[nH]c(-c2ccc(F)cc2)c1-c1ccncc1 (single isomer, unassigned; (+)) | 202 to 205
33 | CC12CCC(=O)CC1CCC1C2CCC2(C)C(OC(=O)CCl)CCC12 (stereo unspecified) | 135 to 136
34 | CCN1CCC2(CC1)c1ccccc1Sc1c(O)cccc12 | 223 to 225
35 | CCCOc1ccc(COCCN2CCOCC2)cc1-c1nc2c(CCC)nn(C)c2c(=O)[nH]1 | 65 to 66
36 | CCOC(=O)CN1CCN(C2=Nc3ccccc3Oc3ccc(Cl)cc32)CC1 | 123 to 124
37 | CCC(Oc1cccc(C)c1C)C(=O)OC1CC(O)C=C2C=CC(C)C(CCC3CC(O)CC(=O)O3)C21 (mixture of isomers) | 148 to 150
38 | C[C@@H](C(=O)Nc1ccc(-n2nc(C(F)(F)F)cc2C2CC2)cc1)n1nnc2cccnc21 | 186 to 191
39 | O=C(O)CCCCC(=O)NC1C=CCCCC1 (stereo unspecified) | 132 to 133
40 | O=C(Oc1cccc2c(C(=O)c3ccc(F)cc3)c(-c3ccc(OCCN4CCCC4)cc3)sc12)c1ccc(F)cc1 | 64 to 68
41 | C[Si](C)(C)C1=CC(=O)C([Si](C)(C)C)=CC1=O | 180
42 | O=C(Nc1cccnc1)N1CCN(c2nc(-c3cccc(Cl)c3Cl)cs2)CC1 | 132 to 133
43 | COc1cc(C2CCC(c3cc(OC)c(OC)c(OC)c3)C2N)cc(OC)c1OC (stereo unspecified) | 117 to 119
44 | CC(=O)NCCc1cn(S(=O)(=O)c2ccc(C)cc2)c2ccc(O)cc12 | 173 to 174
45 | NS(=O)(=O)c1cc2cc(O)cnc2s1 | 270 to 271
46 | Oc1cc(-c2ccccc2)nc(O)n1 | 195 to 200
47 | COCn1c(Cl)c(Cl)c(C#N)c1Cl | 48 to 49
48 | CC(=O)Nc1ccc(S(=O)(=O)Nc2cc(Cl)nc(N3CCCC3)n2)cc1 | 229 to 233
49 | CCCCCCCCN(C)C(N)=NC#N | 101 to 104
50 | CCOC(=O)c1ccc2c(c1)c(C)c(C)n2C(C)=O | 98 to 101
51 | CCN1C(=O)C(C)(C)C(=O)N(C)c2cc(CN(CCn3ccc4oc(C)cc4c3=O)Cc3cncn3C)ccc21 | 106 to 108
